Laboratory results from ChEMBL document CHEMBL5096182, “Aurora kinase inhibitors as potential anticancer agents: Recent advances” (Eur J Med Chem, 2021).
Converted amounts (≈) assume the structure as drawn. Each block holds one compound with its values, some of them ahead of it.

Assays:
[1] = Oral bioavailability in mouse at 10 mg/kg; type: ADME, organism-based; details: in vivo
[2] = Inhibition of Aurora B (unknown origin) using Ulight-PLK (Ser137) as substrate incubated for 60 mins by FRET-based Lance Ultra Kinase assay; set-up: species or system Homo sapiens
SK-OV-3 = assay: Antiproliferative activity against human SK-OV-3 cells incubated for 72 hrs by alamar blue cell viability assay; type: functional, cell-based; details: SK-OV-3, 72 h
A549 [3] = assay: Antiproliferative activity against human A549 cells incubated for 72 hrs by alamar blue cell viability assay; type: functional, cell-based; details: A549, 72 h
A-375 = assay: Antiproliferative activity against human A-375 cells incubated for 72 hrs by alamar blue cell viability assay; type: functional, cell-based; details: A-375, 72 h
MCF7 = assay: Antiproliferative activity against human MCF7 cells incubated for 72 hrs by alamar blue cell viability assay; type: functional, cell-based; details: MCF7, 72 h
MDA-MB-231 = assay: Antiproliferative activity against human MDA-MB-231 cells incubated for 72 hrs by alamar blue cell viability assay; type: functional, cell-based; details: MDA-MB-231, 72 h
HepG2 [4] = assay: Antiproliferative activity against human HepG2 cells; type: functional, cell-based
HCT-116 [5] = assay: Antiproliferative activity against human HCT-116 cells incubated for 48 hrs by SRB assay; type: functional, cell-based; details: HCT-116, 48 h
HepG2 [6] = assay: Antiproliferative activity against human HepG2 cells incubated for 48 hrs by SRB assay; type: functional, cell-based; details: HepG2, 48 h
A2780 = assay: Antiproliferative activity against human A2780 cells incubated for 48 hrs by SRB assay; type: functional, cell-based; details: A2780, 48 h
[7] = molecular target: T1, Aurora kinase A (Homo sapiens) (UniProt O14965); assay: Inhibition of Aurora kinase A (unknown origin) using LeuArgArgAlaSerLeuGly as substrate at 10 uM incubated in presence of ATP relative to control
T1 sequence (whole entry): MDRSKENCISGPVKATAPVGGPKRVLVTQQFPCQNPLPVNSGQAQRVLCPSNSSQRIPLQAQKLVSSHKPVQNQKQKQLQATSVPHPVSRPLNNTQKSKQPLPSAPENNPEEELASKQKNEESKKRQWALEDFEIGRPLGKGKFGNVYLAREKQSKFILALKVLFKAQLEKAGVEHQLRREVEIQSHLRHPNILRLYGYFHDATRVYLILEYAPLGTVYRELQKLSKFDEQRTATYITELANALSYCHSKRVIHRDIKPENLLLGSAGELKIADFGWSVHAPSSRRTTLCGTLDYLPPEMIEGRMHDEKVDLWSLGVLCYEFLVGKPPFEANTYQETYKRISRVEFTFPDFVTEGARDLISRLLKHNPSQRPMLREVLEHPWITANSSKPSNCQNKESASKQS

HCT-116 [8] = assay: Anticancer activity against human HCT-116 cells assessed as cell growth inhibition measured after 7 days by crystal violet staining based clonogenic long-term survival assay; type: functional; details: HCT-116, 168 h, time 7 day
Aurora kinase A [9] = molecular target: T2, Aurora kinase A (Homo sapiens, UniProt O14965); assay: Inhibition of human Aurora A using LeuArgArgAlaSerLeuGly as substrate
T2 sequence (O14965 whole entry): T1 sequence (whole entry)

A549 [10] = assay: Antiproliferative activity against human A549 cells incubated for 72 hrs by MTT assay; type: functional, cell-based; details: A549, 72 h
Aurora kinase A [11] = molecular target: T2, Aurora kinase A; assay: Inhibition of Aurora A (unknown origin) using recombinant Lats2-N-ter as substrate incubated in the presence of ATP
HCT-116 [12] = assay: Antiproliferative activity against human HCT-116 cells by MTT assay
Aurora kinase A [13] = molecular target: T2, Aurora kinase A; assay: Inhibition of N-terminal GST tagged Aurora A (unknown origin) expressed in recombinant baculovirus-infected Sf9 cells using tetra(LRRWSLG) as substrate preincubated for 15 mins followed by the addition of substrate for 90 mins in the presence of ATP by Kinase-Glo Plus reagent based luminescence assay

SMILES: Cc1c(-c2cc(-c3cn(-c4ccccc4)nc3-c3nnn(-c4cccc([N+](=O)[O-])c4)c3C)c(C#N)c(N)n2)nnn1-c1ccc(Br)cc1
IC50 (HepG2 [4]): 1.08 µg/mL (≈ 1.54 µM)

SMILES: COc1ccccc1C1C(C(=O)Nc2ccc(-c3nc4ccccc4[nH]3)cc2)=C(N)NC2SC=CN21 (stereo unspecified)
IC50 (HCT-116 [5]): 1200 nM
IC50 (HepG2 [6]): 2110 nM
IC50 (A2780): 3100 nM

SMILES: COc1cccc2c1C(=O)c1c(O)c3c(c(O)c1C2=O)C[C@@](O)(C(=O)CO)C[C@@H]3O[C@H]1C[C@H](N)[C@H](O)[C@H](C)O1 [DOXORUBICIN]
IC50 (HepG2 [4]): 3.56 µg/mL (≈ 6.55 µM)

SMILES: Cc1c(-c2cc(-c3cn(-c4ccccc4)nc3-c3nnn(-c4ccc(Br)cc4)c3C)c(C#N)c(N)n2)nnn1-c1ccc(Br)cc1
IC50 (HepG2 [4]): 0.64 µg/mL (≈ 0.873 µM)

SMILES: NC1=C(C(=O)Nc2ccc(-c3nc4ccccc4[nH]3)cc2)C(c2ccc([N+](=O)[O-])cc2)N2C=CSC2N1 (stereo unspecified)
IC50 (HCT-116 [5]): 1320 nM
IC50 (HepG2 [6]): 2340 nM
IC50 (A2780): 3500 nM

SMILES: COc1ccc(-c2cc(-c3nnn(-c4ccc(Br)cc4)c3C)nc(N)c2C#N)cc1
IC50 (HepG2 [4]): 2.34 µg/mL (≈ 5.07 µM)

SMILES: COc1cc2ncnc(NCCc3ccc(NC(=O)Nc4ccccc4)cc3)c2cc1OC
IC50 (HCT-116 [12]): 23 nM
IC50 (Aurora kinase A [13]): 25 nM

More lines, main results first:

bioavailability [1]: 73%
IC50 [2]: 8 nM
IC50 (SK-OV-3): 690 nM
IC50 (A549 [3]): 1530 nM
IC50 (A-375): 3970 nM
IC50 (MCF7): 570 nM
IC50 (MDA-MB-231): 420 nM
SMILES: CN1CCN(c2nc(Nc3ccc(S(N)(=O)=O)cc3)ncc2F)Cc2ccc(F)cc21

IC50 [2]: 9 nM
SMILES: CC(=O)N1CCN(c2ccc(Nc3ncc(F)c(N4CCN(C)c5cc(F)ccc5C4)n3)cc2)CC1

inhibition [7]: 95%
SMILES: COc1ccc(-c2cc(-c3ccccc3O)nc(N)n2)c(OC)c1
GI50 (HCT-116 [8]): 1450 nM

IC50 (Aurora kinase A [9]): 1140 nM
IC50 (A549 [10]): 1140 nM
SMILES: O=C(N/N=C/c1coc2ccccc2c1=O)c1ccc(F)cc1

IC50 [2]: 7 nM
SMILES: CN1CCN(c2ccc(Nc3ncc(F)c(N4CCN(C)c5cc(F)ccc5C4)n3)cc2)CC1

IC50 (Aurora kinase A [11]): 35 nM
SMILES: C=CCn1c(C)nc2ccc(Nc3nc(N4CCN(C)CC4)nc4ccccc34)cc21
